This is an account of results in patent US20070082880A1 (priority 2005, published 2007).

T1 sequence (Q04759 whole entry): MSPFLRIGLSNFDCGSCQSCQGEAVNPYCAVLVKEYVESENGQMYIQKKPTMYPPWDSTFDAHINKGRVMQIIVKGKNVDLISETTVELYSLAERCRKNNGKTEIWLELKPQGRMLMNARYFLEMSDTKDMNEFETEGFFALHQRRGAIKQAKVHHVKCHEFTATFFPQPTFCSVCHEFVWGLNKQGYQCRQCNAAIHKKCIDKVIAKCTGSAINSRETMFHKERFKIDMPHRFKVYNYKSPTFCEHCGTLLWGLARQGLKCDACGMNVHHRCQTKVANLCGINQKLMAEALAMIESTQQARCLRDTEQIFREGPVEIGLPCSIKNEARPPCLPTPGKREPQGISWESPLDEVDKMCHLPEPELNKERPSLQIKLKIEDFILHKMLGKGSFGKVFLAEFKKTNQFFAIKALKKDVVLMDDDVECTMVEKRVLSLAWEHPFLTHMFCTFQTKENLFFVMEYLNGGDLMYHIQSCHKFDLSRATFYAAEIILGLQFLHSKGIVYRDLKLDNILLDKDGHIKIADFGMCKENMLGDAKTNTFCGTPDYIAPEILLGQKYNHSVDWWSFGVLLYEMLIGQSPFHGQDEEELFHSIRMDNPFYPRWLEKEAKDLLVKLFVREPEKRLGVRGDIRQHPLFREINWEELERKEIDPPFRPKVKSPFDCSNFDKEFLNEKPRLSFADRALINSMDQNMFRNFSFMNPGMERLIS

The experiment has as its target T1, human PKCθ full length enzyme (Homo sapiens, UniProt Q04759).
T1 construct: human PKCθ full length enzyme (Panvera Catalog No. P2996); purchased Panvera P2996
The experiment can be described thus: PKCθ IMAP Assay. Type of experiment: biochemical. The settings on record: average value when one or more samples were tested; ATP 6 uM, PKCθ 1 nM. The method in brief:
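IMAP fluorescence polarization after 20 min with binding beads measured phosphorylation of 100 nM 5FAM-peptide. Reactions held 1 nM full-length human PKCθ, 6 uM ATP, 5% DMSO and DTT-containing buffer, 25 min at room temperature. Compounds tested as 2:1 serial dilutions; controls lacked ATP or enzyme.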
`CCCOc1c(C=O)cc(C)cc1-c1cc2c(Nc3ccc4[nH]ccc4c3C)c(C#N)cnc2s1` [Compound 379, 2-(3-formyl-5-methyl-2-propoxyphenyl)-4-[(4-methyl-1H-indol-5-yl)amino]thieno[2,3-b]pyridine-5-carbonitrile]: the IC50 (usually the concentration needed to halve the response being measured) was determined as 169 nM.
In the case of `Cc1c(Nc2c(C#N)cnc3sc(-c4cnc5ccccc5c4)cc23)ccc2[nH]ccc12` [Compound 380, 4-[(4-methyl-1H-indol-5-yl)amino]-2-quinolin-3-ylthieno[2,3-b]pyridine-5-carbonitrile] it was 16 nM; in that of `CCCCOc1ccccc1-c1cc2c(Nc3ccc4[nH]ccc4c3C)c(C#N)cnc2s1` [Compound 381, 2-(2-butoxyphenyl)-4-[(4-methyl-1H-indol-5-yl)amino]thieno[2,3-b]pyridine-5-carbonitrile], 1980 nM.
`CCCOc1ccccc1-c1cc2c(Nc3ccc4[nH]ccc4c3C)c(C#N)cnc2s1` [Compound 382, 4-[(4-methyl-1H-indol-5-yl)amino]-2-(2-propoxyphenyl)thieno[2,3-b]pyridine-5-carbonitrile] had an IC50 of 570 nM.
Consider `Cc1c(Nc2c(C#N)cnc3sc(-c4ccccc4OCCCN(C)C)cc23)ccc2[nH]ccc12` [Compound 383, 2-{2-[3-(dimethylamino)propoxy]phenyl}-4-[(4-methyl-1H-indol-5-yl)amino]thieno[2,3-b]pyridine-5-carbonitrile], for which the midpoint of inhibition, the IC50, lay at 64 nM.
As for `CCCOc1ccc(CN(C)C)cc1-c1cc2c(Nc3ccc4[nH]ccc4c3C)c(C#N)cnc2s1` [Compound 384, 2-{5-[(dimethylamino)methyl]-2-propoxyphenyl}-4-[(4-methyl-1H-indol-5-yl)amino]thieno[2,3-b]pyridine-5-carbonitrile], the figure is 93 nM; as for `CCOc1ccc2cc(-c3cc4c(Nc5ccc6[nH]ccc6c5C)c(C#N)cnc4s3)ccc2c1` [Compound 385, 2-(6-ethoxy-2-naphthyl)-4-[(4-methyl-1H-indol-5-yl)amino]thieno[2,3-b]pyridine-5-carbonitrile], greater than 30000 nM; as for `Cc1c(Nc2c(C#N)cnc3sc(-c4cncc(C=O)c4)cc23)ccc2[nH]ccc12` [Compound 387, 2-(5-formylpyridin-3-yl)-4-[(4-methyl-1H-indol-5-yl)amino]thieno[2,3-b]pyridin-5-carbonitrile], 2 nM.
Take `Cc1c(Nc2c(C#N)cnc3sc(-c4ccccc4F)cc23)ccc2[nH]ccc12` [Compound 388, 2-(2-fluorophenyl)-4-[(4-methyl-1H-indol-5-yl)amino]thieno[2,3-b]pyridine-5-carbonitrile]: the IC50 was 118 nM.
As for `Cc1c(Nc2c(C#N)cnc3sc(-c4cc(C=O)ccc4F)cc23)ccc2[nH]ccc12` [Compound 389, 2-(2-fluoro-5-formylphenyl)-4-[(4-methyl-1H-indol-5-yl)amino]thieno[2,3-b]pyridine-5-carbonitrile], the figure is 18 nM; as for `Cc1c(Nc2c(C#N)cnc3sc(-c4cccc(N(C)CCN(C)C)c4)cc23)ccc2[nH]ccc12` [Compound 390, 2-(3-{[2-(dimethylamino)ethyl](methyl)amino}phenyl)-4-[(4-methyl-1H-indol-5-yl)amino]thieno[2,3-b]pyridine-5-carbonitrile], 43 nM.
In the case of `Cc1c(Nc2c(C#N)cnc3sc(-c4ccc(N(C)C)nc4)cc23)ccc2[nH]ccc12` [Compound 391, 2-[6-(dimethylamino)pyridin-3-yl]-4-[(4-methyl-1H-indol-5-yl)amino]thieno[2,3-b]pyridine-5-carbonitrile] it was 86 nM.
In the case of `COCc1ccccc1-c1cc2c(Nc3ccc4[nH]ccc4c3C)c(C#N)cnc2s1` [Compound 392, 2-[2-(methoxymethyl)phenyl]-4-[(4-methyl-1H-indol-5-yl)amino]thieno[2,3-b]pyridine-5-carbonitrile] it was 177 nM.
